Our source for the IC50 values is patent publication US10023570B2 (Array BioPharma, Inc., priority 2015, dated 2018).

Molecules are shown by their SMILES.

This assay deals with human KDR protein in HEK-293 cells (Homo sapiens (Human), UniProt P35968). The assay can be described thus: KDR Cell Assay (phospho-KDR in HEK-293 cells expressing inducible KDR). It is filed as cell-based. The settings on record: pKDR Cell HEK 10% FBS IC50, HEK-293 cells expressing inducible KDR, VEGF stimulated. The gist of the method: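 HEK-293 cells with inducible human KDR were treated with compound for 1 h in DMEM (0.25% DMSO final), then lysed. Phospho-KDR was quantified by Meso Scale immunoassay, expressed as percent of control, and IC50 taken where a 4-parameter logistic fit crossed 50 POC.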
human KDR protein in HEK-293 cells, sequence (P35968 20-1356): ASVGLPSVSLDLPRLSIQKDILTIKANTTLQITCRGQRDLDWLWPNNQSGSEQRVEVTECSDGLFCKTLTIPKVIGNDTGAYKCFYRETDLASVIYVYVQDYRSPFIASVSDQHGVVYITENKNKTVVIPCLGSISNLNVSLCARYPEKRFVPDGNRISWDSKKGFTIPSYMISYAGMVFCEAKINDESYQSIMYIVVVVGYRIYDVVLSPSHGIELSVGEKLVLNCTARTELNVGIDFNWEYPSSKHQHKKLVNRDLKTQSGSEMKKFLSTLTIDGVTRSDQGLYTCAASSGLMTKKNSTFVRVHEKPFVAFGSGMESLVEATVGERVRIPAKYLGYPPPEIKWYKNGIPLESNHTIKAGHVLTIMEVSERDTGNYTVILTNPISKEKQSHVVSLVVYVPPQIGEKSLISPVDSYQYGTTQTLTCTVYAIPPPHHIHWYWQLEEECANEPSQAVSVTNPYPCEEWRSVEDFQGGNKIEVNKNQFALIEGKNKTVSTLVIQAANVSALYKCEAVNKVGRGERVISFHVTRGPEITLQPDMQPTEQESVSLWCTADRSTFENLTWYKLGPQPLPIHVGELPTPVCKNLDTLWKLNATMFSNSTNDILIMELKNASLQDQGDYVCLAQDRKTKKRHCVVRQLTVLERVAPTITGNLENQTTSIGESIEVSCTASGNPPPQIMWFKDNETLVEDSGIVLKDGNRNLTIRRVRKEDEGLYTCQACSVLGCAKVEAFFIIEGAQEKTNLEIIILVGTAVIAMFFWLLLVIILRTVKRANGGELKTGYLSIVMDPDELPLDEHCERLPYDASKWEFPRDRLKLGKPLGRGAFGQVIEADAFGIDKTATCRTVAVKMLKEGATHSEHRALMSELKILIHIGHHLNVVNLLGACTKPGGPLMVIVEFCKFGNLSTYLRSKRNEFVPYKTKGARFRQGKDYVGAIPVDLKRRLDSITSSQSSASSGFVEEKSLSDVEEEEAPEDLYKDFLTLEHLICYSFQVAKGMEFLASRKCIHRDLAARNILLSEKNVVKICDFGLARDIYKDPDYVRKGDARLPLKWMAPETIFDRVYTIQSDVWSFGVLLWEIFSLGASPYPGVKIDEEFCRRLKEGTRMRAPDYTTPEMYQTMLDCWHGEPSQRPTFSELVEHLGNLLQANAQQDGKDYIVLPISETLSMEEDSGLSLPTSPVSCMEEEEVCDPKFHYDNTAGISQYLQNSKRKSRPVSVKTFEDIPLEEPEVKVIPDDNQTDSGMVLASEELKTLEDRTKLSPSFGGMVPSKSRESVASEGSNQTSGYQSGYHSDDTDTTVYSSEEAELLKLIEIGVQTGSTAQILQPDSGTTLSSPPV

Regarding `Cn1cc(-c2cc(-c3ccc(N4CCN(CC(O)c5ccc(Cl)cc5)CC4)nc3)c3c(C#N)cnn3c2)cn1` (centres unmarked) [Example 152, 4-(6-(4-(2-(4-chlorophenyl)-2-hydroxyethyl)piperazin-1-yl)pyridin-3-yl)-6-(1-methyl-1H-pyrazol-4-yl)pyrazolo[1,5-a]pyridine-3-carbonitrile], for the setting “10% FBS”, the IC50 worked out at 207 nM.
Same read-out and setting: the result for `CO[C@H]1C[C@@H](NC(=O)C2CCN(c3ccc(-c4cc(-c5cnn(C)c5)cn5ncc(C#N)c45)cn3)CC2)C1` [Example 241, 1-(5-(3-cyano-6-(1-methyl-1H-pyrazol-4-yl)pyrazolo[1,5-a]pyridin-4-yl)pyridin-2-yl)-N-((1s,3s)-3-methoxycyclobutyl) piperidine-4-carboxamide] reads 1840 nM.
`Cn1cnc(CN2CCN(c3ccc(-c4cc(-c5cnn(C)c5)cn5ncc(C#N)c45)cn3)CC2)c1` [Example 449, 4-(6-(4-((1-methyl-1H-imidazol-4-yl)methyl)piperazin-1-yl)pyridin-3-yl)-6-(1-methyl-1H-pyrazol-4-yl)pyrazolo[1,5-a]pyridine-3-carbonitrile] had an IC50 of 1340 nM.
On the same count and under the same terms, for `Cn1cc(-c2cc(-c3ccc(N4CCN(C(=O)N5CC6C(C5)C6(C)C)CC4)nc3)c3c(C#N)cnn3c2)cn1` (centres unmarked) [Example 384, 4-(6-(4-(6,6-dimethyl-3-azabicyclo[3.1.0]hexane-3-carbonyl)piperazin-1-yl)pyridin-3-yl)-6-(1-methyl-1H-pyrazol-4-yl)pyrazolo[1,5-a]pyridine-3-carbonitrile] the value was 1040 nM; for `COc1ccc(CN2CCN(c3ccc(-c4cc(-c5cnn(C)c5)cn5ncc(C#N)c45)cn3)CC2)cc1` [Example 432, 4-(6-(4-(4-methoxybenzyl)piperazin-1-yl)pyridin-3-yl)-6-(1-methyl-1H-pyrazol-4-yl)pyrazolo[1,5-a]pyridine-3-carbonitrile], 263 nM.
`Cn1cc(-c2cc(-c3cnc(N4CCN(C(=O)[C@H](O)c5ccccc5)CC4)cn3)c3c(C#N)cnn3c2)cn1` [Example 288, (R)-4-(5-(4-(2-hydroxy-2-phenylacetyl)piperazin-1-yl)pyrazin-2-yl)-6-(1-methyl-1H-pyrazol-4-yl)pyrazolo[1,5-a]pyridine-3-carbonitrile] came in with an IC50 (10% FBS) of 1940 nM.
The compound `CC(C)[C@@H](O)C(=O)N1CC2(CCN(c3ccc(-c4cc(-c5cnn(C)c5)cn5ncc(C#N)c45)cn3)CC2)C1` [Example 216, (R)-4-(6-(2-(2-hydroxy-3-methylbutanoyl)-2,7-diazaspiro[3.5]nonan-7-yl)pyridin-3-yl)-6-(1-methyl-1H-pyrazol-4-yl)pyrazolo[1,5-a]pyridine-3-carbonitrile] had an IC50 (10% FBS) of 574 nM.
Regarding `Cn1cc(-c2cc(-c3ccc(N4CCCC5(CCN(C(=O)OC(C)(C)C)C5)C4)nc3)c3c(C#N)cnn3c2)cn1` (centres unmarked) [Example 208, tert-butyl 7-(5-(3-cyano-6-(1-methyl-1H-pyrazol-4-yl)pyrazolo[1,5-a]pyridin-4-yl)pyridin-2-yl)-2,7-diazaspiro[4.5]decane-2-carboxylate], for the setting “10% FBS”, the IC50 was 4680 nM.
`Cn1cc(-c2cc(-c3ccc(N4CCC5(CCCN(C(=O)OC(C)(C)C)C5)C4)nc3)c3c(C#N)cnn3c2)cn1` (centres unmarked) [Example 518, tert-butyl 2-(5-(3-cyano-6-(1-methyl-1H-pyrazol-4-yl)pyrazolo[1,5-a]pyridin-4-yl)pyridin-2-yl)-2,7-diazaspiro[4.5]decane-7-carboxylate] showed an IC50 of 4630 nM.
Same read-out and setting: the result for `Cn1cc(-c2cc(-c3ccc(N4CCN(C(=O)N5CC[C@@H](c6ccccc6)C5)CC4)nc3)c3c(C#N)cnn3c2)cn1` [Example 375, (S)-6-(1-methyl-1H-pyrazol-4-yl)-4-(6-(4-(3-phenylpyrrolidine-1-carbonyl)piperazin-1-yl)pyridin-3-yl)pyrazolo[1,5-a]pyridine-3-carbonitrile] reads 841 nM; that for `Cn1cc(-c2cc(-c3ccc(N4CCN(Cc5cnccn5)CC4)nc3)c3c(C#N)cnn3c2)cn1` [Example 453], 1680 nM.
In turn, `CN(C)C(C(=O)N1CCN(c2ccc(-c3cc(-c4cnn(C)c4)cn4ncc(C#N)c34)cn2)CC1)c1ccc(F)cc1` (centres unmarked) [Example 351, 4-(6-(4-(2-(dimethylamino)-2-(4-fluorophenyl)acetyl)piperazin-1-yl)pyridin-3-yl)-6-(1-methyl-1H-pyrazol-4-yl)pyrazolo[1,5-a]pyridine-3-carbonitrile] gave a 50% inhibitory concentration (IC50) (10% FBS) of 1760 nM.
Turning to `Cn1cc(-c2cc(-c3ccc(N4CCN(Cc5cncc(F)c5)CC4)nc3)c3c(C#N)cnn3c2)cn1` [Example 423, 4-(6-(4-((5-fluoropyridin-3-yl)methyl)piperazin-1-yl)pyridin-3-yl)-6-(1-methyl-1H-pyrazol-4-yl)pyrazolo[1,5-a]pyridine-3-carbonitrile], the IC50 was 1370 nM.
Under “10% FBS”, `Cn1cc(-c2cc(-c3ccc(N4[C@@H]5CC[C@H]4C[C@H](NC(=O)OC(C)(C)C)C5)nc3)c3c(C#N)cnn3c2)cn1` [Example 192, tert-butyl ((1R,3s,5S)-8-(5-(3-cyano-6-(1-methyl-1H-pyrazol-4-yl)pyrazolo[1,5-a]pyridin-4-yl)pyridin-2-yl)-8-azabicyclo[3.2.1]octan-3-yl)carbamate] returned an IC50 of 932 nM.
Take `Cn1cc(-c2cc(-c3ccc(N4CCN(CC5CCOCC5)CC4)nc3)c3c(C#N)cnn3c2)cn1` [Example 466, 6-(1-methyl-1H-pyrazol-4-yl)-4-(6-(4-((tetrahydro-2H-pyran-4-yl)methyl)piperazin-l-yl)pyridin-3-yl)pyrazolo[1,5-a]pyridine-3-carbonitrile]: the IC50 worked out at 2160 nM.
The compound `Cn1cc(-c2cc(-c3ccc(N4CCN(C(=O)Cc5ccc(C#N)cc5)CC4)nc3)c3c(C#N)cnn3c2)cn1` [Example 365, 4-(6-(4-(2-(4-cyanophenyl)acetyl)piperazin-1-yl)pyridin-3-yl)-6-(1-methyl-1H-pyrazol-4-yl)pyrazolo[1,5-a]pyridine-3-carbonitrile 2,2,2-trifluoroacetate] displayed an IC50 (10% FBS) of 597 nM.
On the same count and under the same terms, for `Cn1cc(-c2cc(-c3ccc(N4CCN(C(=O)C(O)c5ccc(F)cc5F)CC4)nc3)c3ccnn3c2)cn1` (centres unmarked) [Example 317, 2-(2,4-difluorophenyl)-2-hydroxy-1-(4-(5-(6-(1-methyl-1H-pyrazol-4-yl)pyrazolo[1,5-a]pyridin-4-yl)pyridin-2-yl)piperazin-1-yl)ethanone] the value was at least 5000 nM; for `Cn1cc(-c2cc(-c3ccc(N4[C@@H]5CC[C@H]4C[C@@H](NC(=O)OC(C)(C)C)C5)nc3)c3c(C#N)cnn3c2)cn1` [Example 194, tert-butyl ((1R,3r,5S)-8-(5-(3-cyano-6-(1-methyl-1H-pyrazol-4-yl)pyrazolo[1,5-a]pyridin-4-yl)pyridin-2-yl)-8-azabicyclo[3.2.1]octan-3-yl)carbamate], 242 nM.
The compound `COc1ccccc1N(C)C(=O)N1CCN(c2ccc(-c3cc(-c4cnn(C)c4)cn4ncc(C#N)c34)cn2)CC1` [Example 382, 4-(5-(3-cyano-6-(1-methyl-1H-pyrazol-4-yl)pyrazolo[1,5-a]pyridin-4-yl)pyridine-2-yl)-N-(2-methoxyphenyl)-N-methylpiperazine-1-carboxamide] returned an IC50 of 1710 nM.
Take `Cn1cc(-c2cc(-c3ccc(N4C[C@@H]5C[C@H]4CN5Cc4ccccc4)nc3)c3c(C#N)cnn3c2)cn1` [Example 483, 4-(6-((1S,4S)-5-benzyl-2,5-diazabicyclo[2.2.1]heptan-2-yl)pyridin-3-yl)-6-(1-methyl-1H-pyrazol-4-yl)pyrazolo[1,5-a]pyridine-3-carbonitrile]: the IC50 turned out to be 77.1 nM.
